The text below walks through data of US6770147B2, “METHOD FOR THE PRODUCTION OF SUGAR OR SUGAR-CONTAINING PRODUCTS FROM SUGAR-CONTAINING VEGETABLE RAW MATERIALS, SUGAR AND SUGAR-CONTAINING PRODUCTS MADE BY THE METHOD, AND EXTRACTION SOLUTION FOR USE IN THE METHOD” (Zuckerforschung Tulln Gesellschaft m.b.H., priority 2000, dated 2004).

For assay [1], the system named is osmotolerant microorganisms. In words: pH drop of syrup with 60% dry substances during storage at 22° C. The class given is cell-based. Particulars: 350 ppm. The text has this: A further pH drop is to be avoided or at least delayed by the addition of an agent. The juice is supplemented with rosin acids at a concentration of 200 ppm in the form of a 20% sodium salt solution.

In assay [2] the test system is thermophilic bacteria. As to the kind of experiment: pH drop (acid formation) of thermophilic bacteria culture: liquid nutrient medium inoculated with crude juice, 65° C. It is filed as cell-based, thermophilic bacteria from sugar beet crude juice. Particulars: Example 9; for pH / ΔpH/h: 0.2 ml solution each added at pH 6.30, 6.28, 6.26, 6.24. The protocol: A liquid nutrient medium as used in microbiology and including 10 g bactopepton, 5 g meat extract, 5 g yeast extract, 1 g glucose, 1 g K2HPO4, 0.3 g KNO3, 0.1 g MgSO4*7H2O and 0.01 g FeSO4*7H2O per liter distilled water, is sterilized in the usual manner for 20 minutes at 120° C. and inoculated with 20 ml crude juice from large-scale sugar beet extraction in a 500 ml vessel heated at 65° C., with the pH being recorded on a recorder. […]
A liquid nutrient medium as used in Example 1 is inoculated with 40 ml crude juice from a sugar factory per liter, stirred at 65° C. and the pH drop is followed. A solution of 15 mg pure neoabietic acid (99%) per 1.5 ml ethanol is prepared.

Turning to `C=O` [HCHO, formaldehyde], the ph drop in assay [1] (Observation time 0 days) was found to be 0; in assay [1] (Observation time 1 days), 0.39; in assay [1] (Observation time 2 days), 0.48; in assay [1] (Observation time 5 days) it was 0.67. The ph value in assay [1] (Observation time 0 days) was 8.44; in assay [1] (Observation time 1 days) it was 8.05; in assay [1] (Observation time 2 days), 7.96; in assay [1] (Observation time 5 days), 7.77.

On to `CC(C)=C1C=C2CCC3C(C)(C(=O)O)CCCC3(C)C2CC1` (stereo not drawn) [neoabietic acid], for which the “concentration at which the pH drop is stopped” value in assay [2] (ethanol solution, four additions of 0.2 ml, 40 ml crude juice per liter, 65° C.) was 8 mg per liter. The pH is recorded as 6.90 in assay [2] (Time 0 h); 6.90 in assay [2] (Time 1 h); 6.89 in assay [2] (Time 2 h); 6.87 in assay [2] (Time 3 h); 6.86 in assay [2] (Time 3.5 h); 6.85 in assay [2] (Time 4 h). In addition, the pH in assay [2] (Time 4.5 h) is 6.82; in assay [2] (Time 5 h) it was 6.72; in assay [2] (Time 5.5 h), 6.54; in assay [2] (Time 5.8 h) it was 6.30; in assay [2] (Time 6 h) it was 6.24; in assay [2] (Time 6.5 h) it was 6.24. Also, the pH in assay [2] (Time 7 h) and in assay [2] (Time 8 h) was 6.25 each time. Further, the ΔpH/h was 0.00 pH/h in assay [2] (Time 1 h); 0.01 pH/h in assay [2] (Time 2 h); 0.02 pH/h in assay [2] (Time 3 h); 0.02 pH/h in assay [2] (Time 3.5 h); 0.02 pH/h in assay [2] (Time 4 h); 0.06 pH/h in assay [2] (Time 4.5 h). Besides, the ΔpH/h in assay [2] (Time 5 h) is reported as 0.20 pH/h; in assay [2] (Time 5.5 h), 0.36 pH/h; in assay [2] (Time 5.8 h), 0.80 pH/h; in assay [2] (Time 6 h), 0.30 pH/h; in assay [2] (Time 6.5 h), 0.00 pH/h; in assay [2] (Time 7 h), −0.02 pH/h. For the same compound, the ΔpH/h in assay [2] (Time 8 h) was determined as 0.00 pH/h.
